# Laboratory results as given in patent US20080131500A1, “METHODS AND COMPOSITIONS FOR RAPID INACTIVATION OF PROTEINS” (The Board of Regents of The University of Texas System, priority 2006, published 2008).
# Like-named read-outs stand apart in the source and are kept apart here.
# What was measured:
# hirudin [1] = biological target: T1, hirudin (Hirudo medicinalis, UniProt P01050); assay: Reduction of native hirudin by DTT at pH 9.0, 11.0 and 13.5, HPLC analysis; format: biochemical; details: for rate constant of hirudin reduction: 50 mM DTT, 22° C.
# Experimental: FIG. 2. […] N-Hirudin (1 mg/ml) was reduced with 50 mM DTT at 22° C. in solutions of pH 9.0, pH 11.0 and pH 13.5. The buffers of pH 9.0 and 11.0 were prepared by the titration of 0.1N NaHC03 and 0.1N NaOH. The samples were quenched at different time points by acidification and analyzed by HPLC using the following conditions. Solvent A for HPLC was water containing 0.1% trifluoroacetic acid. Solvent B was acetonitrile/water (9:1, by volume) containing 0.086% trifluoroacetic acid. The gradient was 27% to 36% solvent B linear in 25 min. The flow rate was 0.5 ml/min. The column was Zorbax 300SB C-18 for peptides and proteins, 4.6 mm, 5 pm. Column temperature was 22° C. N indicates native hirudin.
# Reduction of protein disulfide bonds by a reducing agent (such as β-mercaptoethanol, dithiothreitol or tris-carboxyethyl-phosphine) is typically performed at pH 8.0-8.5. […] Hirudin (a 3-disulfide protein) is used as an example here. Native hirudin was incubated with 20 mM, 50 mM or 100 mM of DTT at 22° C. in solutions of pH 9.0, 11.0 and 13.5 respectively. […] Thus, increase of pH from 9.0 to 13.5 accelerates the rate of reduction of hirudin at room temperature by approximately 30-fold. Similar effect of pH was also observed at DTT concentrations of 20 mM and 100 mM.
# hirudin [2] = biological target: T1, hirudin; assay: Reduction of native hirudin in 1N NaOH, 50 mM DTT with added denaturant (GdnCl or GdnSCN), HPLC analysis; format: biochemical
# Experimental: FIG. 3. […] N indicates native hirudin.
# Denaturant is known to destabilize the conformation of native protein and decrease the covalent stability of disulfide bonds against reduction. In addition to the optimized pH (13.5) for hirudin reduction described above, denaturant (GdnCl and GdnSCN) was included to further accelerate the rate of reduction. Native hirudin (N) was incubated at 22° C. in solutions comprising 1N NaOH, 50 mM DTT and increasing concentrations of GdnCl (0.2M-2M) or GdnSCN (0.1M-I M). […] In the presence of 1M of GdnSCN, the reduction of hirudin completes within one minute.
# [3] = cited from earlier work
# T1 sequence (P01050 whole entry, looked up): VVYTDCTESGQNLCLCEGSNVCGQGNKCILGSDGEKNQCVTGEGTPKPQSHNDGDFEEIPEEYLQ
compound,measurement,setting,value
"O[C@H](CS)[C@H](O)CS (racemic) [DTT, dithiothreitol]",rate constant of hirudin reduction,hirudin [1]; pH 9.0,0.00377 min⁻¹
same,rate constant of hirudin reduction,hirudin [1]; pH 11.0,0.0235 min⁻¹
same,acceleration of the rate of reduction of hirudin,"hirudin [1]; increase of pH from 9.0 to 13.5, room temperature",approximately 30 fold
"Cl.N=C(N)N [GdnCl, guanidinium chloride]",potency of 6M GdnCl relative to 1M GdnSCN,hirudin [2]; 6M GdnCl versus 1M GdnSCN,about 3 fold
same,potency relative to GdnSCN,"hirudin [2]; acceleration of hirudin reduction in 1N NaOH, 50 mM DTT",approximately 50%
"N#CS.N=C(N)N [GdnSCN, guanidine thiocyanate]",time to complete reduction of hirudin,"hirudin [2]; 1M GdnSCN in 1N NaOH, 50 mM DTT, 22° C.",one
same,further acceleration of the reduction of hirudin,"hirudin [2]; inclusion of 0.2M GdnSCN in 1N NaOH, 50 mM DTT, 22° C.",2.5 fold
same,further acceleration of the reduction of hirudin,"hirudin [2]; inclusion of 0.5M GdnSCN in 1N NaOH, 50 mM DTT, 22° C.",5 fold
hirudin,hirudin in a denatured state,[3]; 6 M GdnCl,67%
same,hirudin in a denatured state,[3]; 8 M urea,14%
